The results in this text go back to US20230203025A1, “ENHANCERS OF PARTICULATE GUANYLYL CYCLASE RECEPTOR A” (Mayo Foundation for Medical Education and Research, priority 2020, published 2023).

pKd: −log10 of the molar value.

For the assay, the target named is T1, extracellular domain of human pGC-A (Homo sapiens, UniProt P16066).
T1 construct: the extracellular domain of human pGC-A was used
T1 sequence (P16066 33-473 limits assumed): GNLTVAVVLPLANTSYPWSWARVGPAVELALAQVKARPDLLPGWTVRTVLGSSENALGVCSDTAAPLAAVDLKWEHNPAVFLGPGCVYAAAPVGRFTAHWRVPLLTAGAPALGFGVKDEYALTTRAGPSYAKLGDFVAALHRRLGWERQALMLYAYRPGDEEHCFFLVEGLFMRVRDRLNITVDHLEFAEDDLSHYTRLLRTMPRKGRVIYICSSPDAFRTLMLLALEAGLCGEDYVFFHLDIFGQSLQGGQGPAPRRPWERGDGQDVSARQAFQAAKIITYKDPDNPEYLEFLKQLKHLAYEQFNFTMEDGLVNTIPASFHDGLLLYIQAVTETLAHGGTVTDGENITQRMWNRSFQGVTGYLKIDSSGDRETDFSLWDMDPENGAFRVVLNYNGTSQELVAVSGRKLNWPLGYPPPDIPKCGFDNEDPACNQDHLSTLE
Kind of assay: SPR binding of compound 19 to pGC-A extracellular domain (Example 5). The protocol:
Binding Studies of compound 19 to Human pGC-A Receptor: Surface plasmon resonance (SPR) binding analysis was performed by employing the highly sensitive Biosensing Instrument 4500 system for small molecule binding. For these studies the extracellular domain of human pGC-A was used together with compound 19 at increasing concentrations.

As a reminder, the pKd is the negative decadic logarithm of the Kd, by convention in mol/L. Higher therefore signals a low Kd. Take `CN(C)CCN1CCCC(C(=O)Nc2nc3c(F)cc(F)cc3s2)C1` (centres unmarked) [Compound 19]: the “binding to human pGC-A” value (Response (RU) increasing with concentration) is given as “clearly validated”. This compound also showed a pKd (compound 2.5 to 20 μM with 0.25 μM pGC-A receptor extracellular domain) of 5.39.
